Assay results from PMC11763264, “Antibacterial and Antifungal Activities of Linear and Cyclic Peptides Containing Arginine, Tryptophan, and Diphenylalanine” (Antibiotics, 2025).
Converted amounts (≈) assume the structure as drawn. Non-standard residues stand in square brackets, D forms with d. Residues, ends and D or L forms follow the SMILES beside them. Dip = N[C@H](C(=O)O)C(c1ccccc1)c1ccccc1

Legend:
E. coli (ATCC 25922) = assay: microbe, parasite or virus in culture; assay type: cell-based, Escherichia coli; conditions: ATCC 25922, 24 h
Method: (§1) The antibacterial activity of all ten synthesized linear and cyclic peptides was evaluated against MRSA (ATCC BAA-1556), S. aureus (ATCC 29213), E. faecium (ATCC 700221), S. pneumoniae (ATCC 51938), E. faecalis (ATCC 29212), B. subtilis (ATCC-6633), K. pneumoniae (ATCC BAA-1705), P. aeruginosa (ATCC 27883), and E. coli (ATCC 25922). Meropenem and daptomycin were used as positive controls for this study. Certain peptides are marked as “NT” (not tested) against specific bacterial strains based on initial screening data. […] The MIC was determined by micro-broth dilution protocol, where the minimal concentrations were determined to be in wells with no visible bacterial growth.
(§2) All bacterial experiments were carried out in a laminar flow hood (Labconco, Kansas City, MO, USA). The bacterial strains were cultured following the guidelines set by the Clinical Laboratory Standards Institute (CLSI). Antibacterial assays were performed using a standard microtiter dilution method as described in previous studies. The minimum inhibitory concentration (MIC) refers to the lowest peptide concentration that inhibits bacterial growth in wells with no visible bacterial growth. MIC was determined by micro-broth dilution. Bacteria were cultured overnight in 6 mL of Luria Broth (LB). A stock solution of the peptide was prepared in water and DMSO, and a test compound solution with a concentration of 256 µg/mL was made in LB. Meropenem, with a solubility of 8 mg/mL, was prepared as a stock solution at 4 mg/500 µL. An aliquot of the overnight bacteria culture was diluted in normal saline (NS, 1 mL) until achieving a 0.5 McFarland turbidity (1.5 × 10^8 bacterial cell CFU/mL). A 0.5 McFarland compared solution (60 µL) was added to Mueller Hinton Broth (MH) 8940 µL to generate a 1/150 dilution. A 200 µL test compound solution was added to the first well of a 96-well plate, and the remaining wells (2–12) were filled with 100 µL of MH media using a multi-channel pipette from a sterile reservoir. A concentration of […] of the tested peptides was prepared from a stock solution of the samples for testing in Muller−Hinton broth MH media. Peptides stock solution was dissolved in 5% DMSO in water, and the final concentration of DMSO in the first well of assay plate was 2.5% DMSO/H2O and diluted across the assay plate.
(§3) A 100 µL sample from well 1 was pipetted into well 2, and the solution was mixed thoroughly by pipetting up and down. Next, 100 µL was transferred from well 2 to well 3, followed by thorough mixing. This 2-fold serial dilution process continued through well 11, with no additions made to well 12. The final 100 µL from well 11 was discarded. After completing the serial dilution, each well (1–12) contained 100 µL of solution. The bacterial culture in MH media was vortexed and transferred to a sterile reservoir, from which 100 µL was added to each well using a 12-channel pipette. (Note: The dilutions were further diluted upon adding the bacterial solution; for example, the concentration in well 1 started at […] after the addition of the bacterial culture.) The plates were incubated overnight at 37 °C for 24 h. All experiments were performed in triplicate and repeated twice, with controls consisting of bacteria in MH media and positive controls of daptomycin or meropenem.

S. aureus (ATCC 29213) = assay: microbe, parasite or virus in culture; assay type: cell-based, Staphylococcus aureus; conditions: ATCC 29213, 24 h
Method: as §1, §2, §3

MRSA (ATCC BAA-1556) = assay: microbe, parasite or virus in culture; assay type: cell-based, Methicillin-Resistant Staphylococcus aureus; conditions: ATCC BAA-1556, 24 h
Method: as §1, §2, §3

[1] = test system: Gram-positive and Gram-negative bacteria strains; assay type: cell-based; conditions: span over all bacterial strains tested; micro-broth dilution
Method: as §1
(§4) All bacterial experiments were carried out in a laminar flow hood (Labconco, Kansas City, MO, USA). The bacterial strains were cultured following the guidelines set by the Clinical Laboratory Standards Institute (CLSI). Antibacterial assays were performed using a standard microtiter dilution method as described in previous studies. The minimum inhibitory concentration (MIC) refers to the lowest peptide concentration that inhibits bacterial growth in wells with no visible bacterial growth. MIC was determined by micro-broth dilution. Bacteria were cultured overnight in 6 mL of Luria Broth (LB). […]

[2] = test system: Gram-positive bacteria strains: MRSA, S. aureus, E. faecium, E. faecalis, S. pneumoniae, and B. subtilis; assay type: cell-based; conditions: span over MRSA, micro-broth dilution
Method: as §1, §4

[3] = cited from earlier work
Description: We hypothesized that these peptides can be used as a broad-spectrum antibiotic and antifungal agents by interacting with bacterial and fungal membranes. The head-to-tail cyclization and incorporation of unnatural amino acids could provide improved stability against degradation in the biological environment. […] For example, we have previously shown the plasma stability of [DipR]5. Approximately 15% degradation of [DipR]5 was observed within the first hour, but the rate of de ...

E. faecalis (ATCC 29212) = assay: microbe, parasite or virus in culture; assay type: cell-based, Enterococcus faecalis; conditions: ATCC 29212, 24 h
Method: as §1, §2, §3

SMILES: N=C(N)NCCC[C@@H]1NC(=O)[C@H](C(c2ccccc2)c2ccccc2)NC(=O)[C@H](CCCNC(=N)N)NC(=O)[C@H](C(c2ccccc2)c2ccccc2)NC(=O)[C@H](CCCNC(=N)N)NC(=O)[C@H](C(c2ccccc2)c2ccccc2)NC(=O)[C@H](CCCNC(=N)N)NC(=O)[C@H](C(c2ccccc2)c2ccccc2)NC(=O)[C@H](CCCNC(=N)N)NC(=O)[C@H](C(c2ccccc2)c2ccccc2)NC1=O [[DipR]5] (cyclo([Dip]R[Dip]R[Dip]R[Dip]R[Dip]R))
- MIC (E. coli (ATCC 25922)): 12.5 µM (≈ 23.7 µg/mL)
- MIC (S. aureus (ATCC 29213)): 3.1 µM (≈ 5.88 µg/mL)
- MIC (MRSA (ATCC BAA-1556)): 3.1 µM (≈ 5.88 µg/mL)
- MIC values against Gram-positive and Gram-negative bacteria strains [1]: 0.39 to 25 µM
- MIC values against Gram-positive bacteria strains [2]: 0.39 to 6.3 µM
- degradation in plasma [3]: Approximately 15%
- MIC (E. faecalis (ATCC 29212)): 0.78 µM (≈ 1.48 µg/mL)
